Reference: patent US8741867B2, “Retinoid-liposomes for treating fibrosis” (Nitto Denko Corporation, priority 2011, dated 2014)
Where two headings read alike, the source gives them in different places. d = 2'-deoxy (DNA); r = 2'-OH (RNA)

What was measured:
293_HSP47-GFP cell line [1] = experiment: Cell viability of 293_HSP47-GFP cells treated with siNA (CellTiter-Glo); details: normalized to scrambled siRNA
Method: (§2) Cells treated with or without siNA were measured for viability after 72 hours incubation using CellTiter-Glo Luminescent Cell Viability Assay Kit according to the manual (Promega). The readings were normalized to samples treated with scrambled siNA molecules.
(§3) The 293_HSP47-GFP and 293_GP46-GFP cell lines treated with siRNA against hsp47 and gp46 were evaluated for viability using the methods described in Example 2. The cell viability was normalized to cells treated with scrambled siRNA (Ambion).

[2] = test system: rat fibroblasts (NRK cells); experiment: Inhibition of collagen synthesis by siRNA (3H-proline, collagenase-sensitive fraction); assay type: cell-based; details: siRNA 50 nM, 48 hours, compared with control group
Method: In order to examine the amount of collagen synthesized, ^3H-proline was added to the culture supernatant of rat fibroblasts (NRK cells) under the above-mentioned conditions (siRNA concentration 50 nM, time 48 hours), and after transfection the amount of ^3H in secreted protein was examined (FIG. 5). The amount of collagen synthesized was calculated from the ratio of protein secreted in the supernatant to protein degraded by collagenase when culturing gp46siRNA-transfected fibroblasts in the presence of ^3H-proline in accordance with Peterkofsky et al., 1971 Biochemistry 10:988-94. Collagen synthesis ratio=collagenase−sensitive fraction×100(5.4×collagenase−insensitive fraction+collagenase−sensitive fraction)
The collagen synthesis ratio in rat fibroblasts decreased by about 40% compared with a control group (FIG. 6).

rat gp46 [3] = experiment: Inhibition of gp46 expression by prepared siRNA in NRK cells (western blot); assay type: cell-based
Method: Normal rat kidney cells (NRK cells), which had rat gp46 and were fibroblasts producing collagen, were transfected with 0.1 nM to 50 nM siRNA and cultured for 12 to 48 hours (FIG. 1). The amount of expression of gp46 was checked by the western blot method (FIGS. 2 to 4, upper band corresponding to gp46, lower band corresponding to actin control). All of the siRNAs inhibited the expression of gp46 protein remarkably compared with a vehicle (FIG. 2).

293_HSP47-GFP cell line [4] = test system: 293_HSP47-GFP cell line
Method: as §2, §3

hsp47 mRNA = experiment: siHsp47 inhibitory effect on hsp47 mRNA by TaqMan qPCR in hTERT cells; assay type: cell-based, human; details: 72 hours after transfection, normalized to GAPDH
Method: In Example 14, the knock down efficiency of siHsp47s in reporter cell lines was evaluated by change in fluorescent signal. To validate the results at the mRNA level, siRNAs targeting endogenous hsp47 were transfected into cells of the human HSC cell line hTERT using Lipofectamine RNAiMAX (Invitrogen) in a reverse transfection manner as described in Example 13
The hsp47 mRNA level was evaluated for knock down efficiency of the various tested siHsp47 siNA molecules. Briefly, mRNA were isolated from hTERT cells after 72 hours after transfection using an RNeasy mini kit (Qiagen). The level of hsp47 mRNA was determined by reverse transcription coupled with quantitative PCR using TaqMan® probes. Briefly, cDNA synthesis was carried out using High-Capacity cDNA Reverse Transcription Kit (ABI) according to the manufacturer's instruction, and subjected to TaqMan Gene Expression Assay (ABI, hsp47). The level of hsp47 mRNA was normalized to the level of GAPDH mRNA according to the manufacturer's instruction (ABI).

collagen I mRNA = experiment: Downregulation of collagen I expression by hsp47 siRNA in hTERT cells (TaqMan qPCR); assay type: cell-based, human; details: 72 hours, normalized to GAPDH and scrambled siNA
Method: To determine the effect of siHsp47 on collagen I expression level, collagen I mRNA level in hTERT cells treated with different siRNA against hsp47 was measured. Briefly, hTERT cells were transfected with different siHsp47 as described in Example 13. The cells were lysed after 72 hours and mRNA were isolated using RNeasy mini kit according to the manual (Qiagen). The level of collagen 1 mRNA was determined by reverse transcription coupled with quantitative PCR using TaqMan® probes. Briefly, cDNA synthesis was carried out using High-Capacity cDNA Reverse Transcription Kit (ABI) according to the manual, and subjected to TaqMan Gene Expression Assay (ABI, COL 1A1 assay). The level of collagen I mRNA was normalized to the level of GAPDH mRNA according to the manufacturer's instruction (ABI). The signals were normalized to the signal obtained from cells transfected with scrambled siNA.

human HSP47 = experiment: Inhibitory efficiency of siHsp47 in 293_HSP47-GFP reporter cell line (GFP fluorescence); assay type: cell-based; details: 293_HSP47-GFP cell line, normalized to scrambled siRNA
Description: (§1) The fluorescent signals were normalized to fluorescent signals from cells treated with scrambled siRNA (Ambion) which served as a control.

rat gp46 [5] = experiment: Inhibitory efficiency of siHsp47 in 293_GP46-GFP reporter cell line (GFP fluorescence); assay type: cell-based; details: 293_GP46-GFP cell line, normalized to scrambled siRNA
Description: as §1

293_GP46-GFP cell line = assay type: cell-based, human
Method: as §2, §3

HSP47 protein = experiment: siHsp47 knock down effect at the protein level in hTERT cells (western blot); assay type: cell-based, human; details: hTERT cell lysate
Method: The inhibitory effect of different Hsp47 siNA molecules (siHsp47) on hsp47 mRNA expression were validated at the protein level by measuring the HSP47 in hTERT cells transfected with different siHsp47. Transfection of hTERT cells with different siHsp47 were performed as described in Example 13. Transfected hTERT cells were lysed and the cell lysate were clarified by centrifugation. Proteins in the clarified cell lysate were resolved by SDS polyacrylamide gel electrophoresis. The level of HSP47 protein in the cell lysate were determined using an anti-HSP47 antibody (Assay Designs) as the primary antibody, Goat anti-mouse IgG conjugated with HRP (Millipore) as the secondary antibody, and subsequently detected by Supersignal West Pico Chemiluminescence kit (Pierce). Anti-actin antibody (Abcam) was used as a protein loading control.

| Substance | cell viability / cytotoxicity (293_HSP47-GFP cell line [1]) | cell viability / cytotoxicity (293_HSP47-GFP cell line [4]) | knock down of hsp47 mRNA (remaining mRNA level) (hsp47 mRNA) | collagen I mRNA level (collagen I mRNA) | knockdown of human HSP47 (GFP fluorescent signal) (human HSP47) | knockdown of rat GP46 (GFP fluorescent signal) (rat gp46 [5]) | cell viability / cytotoxicity (293_GP46-GFP cell line) | level of Hsp47 protein (HSP47 protein) | further results |
| --- | --- | --- | --- | --- | --- | --- | --- | --- | --- |
| Hsp47-7: siRNA to human hsp47 cDNA 692-710, 19-mer duplex; SEQ ID NO 57/58 (chain 1 CCGUGGGUGUCAUGAUGAUUU; chain 2 AUCAUCAUGACACCCACGGUU; chemistry not fully specified) | lower |  |  |  |  |  |  |  |  |
| Sequence A: siRNA for rat gp46, GUUCCACCAUAAGAUGGUAGACAAC (SEQ ID NO: 2728) (chemistry not given here) |  |  |  |  |  |  |  |  | decrease of collagen synthesis ratio [2]: about 40%; inhibition of gp46 expression, dependence on concentration (rat gp46 [3]; 0.1 nM to 50 nM siRNA): concentration dependent; inhibition of gp46 protein expression (rat gp46 [3]; 50 nM siRNA, 48 hours): about 90%; expression of gp46 protein (western blot) (rat gp46 [3]; 24 hour culturing, examination of optimal sequence, compared with vehicle): strongest effect |
| siHsp47-2: siRNA to human hsp47 cDNA 469-487, 19-mer duplex; sense GAGCACUCCAAGAUCAACUdTdT (SEQ ID NO 21/22) (sense GAGCACUCCAAGAUCAACUTT; antisense AGUUGAUCUUGGAGUGCUCTT; sugars from the 5' end r19 d2, backbone not given here) |  | without substantial cytotoxicity | next most effective | significantly reduced | efficiently knockdown | efficiently knockdown | without substantial cytotoxicity |  |  |
| siHsp47-2d: siRNA to human hsp47 cDNA 469-493, 25-mer duplex; sense GAGCACUCCAAGAUCAACUUCCGdCdG (SEQ ID NO 25/26) (sense GAGCACUCCAAGAUCAACUUCCGCG; antisense GCGGAAGUUGAUCUUGGAGUGCUCUU; sense: sugars from the 5' end r23 d2, backbone not given here; antisense: chemistry not given here) |  | without substantial cytotoxicity | next most effective | significantly reduced | efficiently knockdown | efficiently knockdown | without substantial cytotoxicity | significant decrease |  |
| siHsp47-6: siRNA to human hsp47 cDNA 446-464, 19-mer duplex; SEQ ID NO 53/54 (chain 1 GCAGCAAGCAGCACUACAAUU; chain 2 UUGUAGUGCUGCUUGCUGCUU; chemistry not fully specified) | lower |  |  |  |  |  |  |  |  |
| siHsp47-C: siRNA to human and rat hsp47, 19mer duplex, dTdT overhangs; sense GGACAGGCCUCUACAACUAdTdT (SEQ ID NO 5/6) (sense GGACAGGCCUCUACAACUATT; antisense UAGUUGUAGAGGCCUGUCCTT; sugars from the 5' end r19 d2, backbone not given here) |  | without substantial cytotoxicity | most effective |  | efficiently knockdown | efficiently knockdown | without substantial cytotoxicity | significant decrease |  |
